From patent publication US9789086B1, “N-(5-arylamido-2-methylphenyl)-5-methylisooxazole-4-carboxamide deravative, pharmaceutical acceptable salt thereof, method for preparation therof and FMS kinase inhibitor comprising the same as anactive ingredient” (Industry-University Cooperation Foundation Hanyang …, priority 2014, dated 2017)

Columns and labels:
[1] = tested on: A375P cell line; experiment: A375P cell line proliferation inhibitory activity (MTT assay); assay type: cell-based; settings: A375P cells, 48 hours treatment
Experimental: A375P cell lines were purchased from ATCC and cultured in a DMEM culture medium (containing 10% FBS and 1% penicillin/streptomycin) in the presence of 5% CO2 at 37° C. The cultured A375P cell lines were taken from culture substrate with 0.05% trypsin-0.02% EDTA and plated at a density of 5×10^3 cells per well in 96-well plates.
(§1) In order to measure cell viability, MTT [3-(4,5-dimethylthiazole-2-yl)-2,5-diphenyltetrazolium bromide] activity assay method (Thiazolyl Blue Tetrazolium Bromide, Sigma Aldrich) was used. Cell lines were cultured in 96-well plates for 24 hours and treated with the compounds of Examples previously prepared. For the compound treatment, 10 mM stocks were prepared, serially diluted in DMSO and added by 0.5 μL at 8 points (final concentration of 0.5%). The cell lines in plates treated with the compounds was cultured for 48 hours, then 15 μL of dye was added to each well and cultured for 4 hours. Then, 100 μL of DMSO solvent was added to each well, and the formed solid was dissolved to measure the absorbance. The absorbance was read at a wavelength of 570 nm using EnVision 2103, and the GI 50 value was calculated using GraphPad Prism 4.0 software, and the results are shown in Table 1 below.

[2] = tested on: U937 cell line; experiment: U937 cell line proliferation inhibitory activity (MTT assay); assay type: cell-based; settings: Homo sapiens, U-937, U937 cells
Experimental: as §1
U937 cell lines were purchased from ATCC and cultured in a RPMI culture medium (containing 10% FBS, 1% penicillin/streptomycin and 25 mM HEPES) in the presence of 5% CO2 at 37° C. The cell line proliferation inhibitory activity for Examples previously prepared was measured using the same MTT activity assay method as the A375P cell line proliferation inhibitory activity assay in Experimental Example 1.

**Q.** Which GI50 [1] does the source give for Cc1cc(NC(=O)c2ccc(N3CCOCC3)c(C(F)(F)F)c2)ccc1NC(=O)c1cnoc1C [Example 1, 5-methyl-N-(2-methyl-4-(4-morpholino-3-(trifluoromethyl)benzamido)phenyl)isoxazole-4-carboxamide] here?
**A.** 10 to 30 µM

**Q.** And the GI50 [2]?
**A.** 10 to 30 µM

**Q.** Which results are given for Cc1cc(NC(=O)c2cc(N3CCN(C)CC3)cc(C(F)(F)F)c2)ccc1NC(=O)c1cnoc1C [Example 2, 5-methyl-N-(2-methyl-4-(3-(4-methylpiperazin-1-yl)-5-(trifluoromethyl)benzamido)phenyl)isoxazole-4-carboxamide]?
**A.** GI50 [1]: 10 to 30 µM; GI50 [2]: 10 to 30 µM

**Q.** Cc1ccc(NC(=O)c2cc(N3CCN(C)CC3)cc(C(F)(F)F)c2)cc1NC(=O)c1cnoc1C [Example 3, 5-methyl-N-(2-methyl-5-(3-(4-methylpiperazin-1-yl)-5-(trifluoromethyl)benzamido)phenyl)isoxazole-4-carboxamide] was tested. Which GI50 [1] did it give?
**A.** 10 to 30 µM

**Q.** And the GI50 [2]?
**A.** < 1 µM

**Q.** Cc1ccc(NC(=O)c2ccc(N3CCOCC3)c(C(F)(F)F)c2)cc1NC(=O)c1cnoc1C [Example 4, 5-methyl-N-(2-methyl-5-(4-morpholino-3-(trifluoromethyl)benzamido)phenyl)isoxazole-4-carboxamide] was tested. Which GI50 [1] did it give?
**A.** 10 to 30 µM

**Q.** And the GI50 [2]?
**A.** < 1 µM

**Q.** With Cc1ccc(NC(=O)c2cccc(Cl)c2)cc1NC(=O)c1cnoc1C [Example 6, N-(5-(3-chlorobenzamido)-2-methylphenyl)-5-methylisoxazole-4-carboxamide] as the compound, how does the GI50 [1] read?
**A.** 10 to 30 µM

**Q.** What about the GI50 [2] of the same compound?
**A.** 10 to 30 µM

**Q.** Which results are given for Cc1ccc(NC(=O)c2ccc(Cl)cc2)cc1NC(=O)c1cnoc1C [Example 7, N-(5-(4-chlorobenzamido)-2-methylphenyl)-5-methylisoxazole-4-carboxamide]?
**A.** GI50 [1]: 10 to 30 µM; GI50 [2]: 10 to 30 µM

**Q.** Which GI50 [1] does the source give for Cc1ccc(NC(=O)Cc2ccccc2F)cc1NC(=O)c1cnoc1C [Example 8, N-(5-(2-(2-fluorophenyl)acetamido)-2-methylphenyl)-5-methylisoxazole-4-carboxamide] here?
**A.** 10 to 30 µM

**Q.** What about the GI50 [2] of the same compound?
**A.** 10 to 30 µM

**Q.** With Cc1ccc(NC(=O)c2cc(-n3ccnc3C)cc(C(F)(F)F)c2)cc1NC(=O)c1cnoc1C [Example 9, 5-methyl-N-(2-methyl-5-(3-(2-methyl-1H-imidazol-1-yl)-5-(trifluoromethyl)benzamido)phenyl)isoxazole-4-carboxamide] as the compound, how does the GI50 [1] read?
**A.** 10 to 30 µM

**Q.** What about the GI50 [2] of the same compound?
**A.** < 1 µM

**Q.** How did the GI50 [1] turn out when Cc1ccc(NC(=O)c2cc(-n3cncc3C)cc(C(F)(F)F)c2)cc1NC(=O)c1cnoc1C [Example 10, 5-methyl-N-(2-methyl-5-(3-(5-methyl-1H-imidazol-1-yl)-5-(trifluoromethyl)benzamido)phenyl)isoxazole-4-carboxamide] was run?
**A.** 10 to 30 µM

**Q.** And the GI50 [2]?
**A.** < 1 µM

**Q.** Which results are given for Cc1cn(-c2cc(C(=O)Nc3ccc(C)c(NC(=O)c4cnoc4C)c3)cc(C(F)(F)F)c2)cn1 [Example 11, 5-methyl-N-(2-methyl-5-(3-(4-methyl-1H-imidazol-1-yl)-5-(trifluoromethyl)benzamido)phenyl)isoxazole-4-carboxamide]?
**A.** GI50 [1]: 10 to 30 µM; GI50 [2]: < 1 µM

**Q.** Cc1ccc(NC(=O)c2ccc3ccccc3n2)cc1NC(=O)c1cnoc1C [Example 12, 5-methyl-N-(2-methyl-5-(quinoline-2-carboxamido)phenyl)isoxazole-4-carboxamide] was tested. Which GI50 [1] did it give?
**A.** 10 to 30 µM

**Q.** What about the GI50 [2] of the same compound?
**A.** 10 to 30 µM

**Q.** What does the source list for Cc1ccc(NC(=O)C(c2ccc(Cl)cc2)c2ccc(Cl)cc2)cc1NC(=O)c1cnoc1C [Example 13, N-(5-(2,2-bis(4-chlorophenyl)acetamido)-2-methylphenyl)-5-methylisoxazole-4-carboxamide]?
**A.** GI50 [1]: 10 to 30 µM; GI50 [2]: 10 to 30 µM

**Q.** How did the GI50 [1] turn out when Cc1ccc(NC(=O)C2(C)CCc3c(C)c(O)c(C)c(C)c3O2)cc1NC(=O)c1cnoc1C (stereo not shown) [Example 14, N-(5-(6-hydroxy-2,5,7,8-tetramethylchroman-2-carboxamido)-2-methylphenyl)-5-methylisoxazole-4-carboxamide] was run?
**A.** 10 to 30 µM

**Q.** What about the GI50 [2] of the same compound?
**A.** 10 to 30 µM

**Q.** For CC(=O)N1CCC(C(=O)Nc2ccc(C)c(NC(=O)c3cnoc3C)c2)CC1 [Example 15, N-(5-(1-acetylpiperidine-4-carboxamido)-2-methylphenyl)-5-methylisoxazole-4-carboxamide], which GI50 [1] is on record?
**A.** 10 to 30 µM

**Q.** What about the GI50 [2] of the same compound?
**A.** 10 to 30 µM

**Q.** For Cc1ccc(NC(=O)Cc2c[nH]c3ccccc23)cc1NC(=O)c1cnoc1C [Example 16, N-(5-(2-(1H-indol-3-yl)acetamido)-2-methylphenyl)-5-methylisoxazole-4-carboxamide], which GI50 [1] is on record?
**A.** 10 to 30 µM

**Q.** And the GI50 [2]?
**A.** 10 to 30 µM

**Q.** How did the GI50 [1] turn out when Cc1ccc(NC(=O)c2cnccn2)cc1NC(=O)c1cnoc1C [Example 17, 5-methyl-N-(2-methyl-5-(pyrazine-2-carboxamido)phenyl)isoxazole-4-carboxamide] was run?
**A.** 10 to 30 µM

**Q.** And the GI50 [2]?
**A.** 10 to 30 µM

**Q.** What does the source list for Cc1ccc(NC(=O)c2ccc3[nH]nnc3c2)cc1NC(=O)c1cnoc1C [Example 18, N-(5-(1H-benzo[d][1,2,3]triazole-5-carboxamido)-2-methylphenyl)-5-methylisoxazole-4-carboxamide]?
**A.** GI50 [1]: 10 to 30 µM; GI50 [2]: 10 to 30 µM

**Q.** With Cc1ccc(NC(=O)C2Cc3ccccc3N2)cc1NC(=O)c1cnoc1C (stereo not shown) [Example 19, N-(5-(indoline-2-carboxamido)-2-methylphenyl)-5-methylisoxazole-4-carboxamide] as the compound, how does the GI50 [1] read?
**A.** 10 to 30 µM

**Q.** And the GI50 [2]?
**A.** 10 to 30 µM

**Q.** With Cc1ccc(NC(=O)c2ccncc2)cc1NC(=O)c1cnoc1C [Example 20, N-(5-(isonicotinamido)-2-methylphenyl)-5-methylisoxazole-4-carboxamide] as the compound, how does the GI50 [1] read?
**A.** 10 to 30 µM

**Q.** And the GI50 [2]?
**A.** 10 to 30 µM

**Q.** What does the source list for Cc1ccc(NC(=O)c2ccccc2Sc2ccccc2C#N)cc1NC(=O)c1cnoc1C [Example 21, N-(5-(2-(2-cyanophenylthio)benzamido)-2-methylphenyl)-5-methylisoxazole-4-carboxamide]?
**A.** GI50 [1]: 10 to 30 µM; GI50 [2]: 10 to 30 µM

**Q.** Cc1ccc(NC(=O)Cc2ccc(-c3ccccc3)cc2)cc1NC(=O)c1cnoc1C [Example 22, N-(5-(2-(biphenyl-4-yl)acetamido)-2-methylphenyl)-5-methylisoxazole-4-carboxamide] was tested. Which GI50 [1] did it give?
**A.** 10 to 30 µM

**Q.** What about the GI50 [2] of the same compound?
**A.** 10 to 30 µM

**Q.** Which GI50 [1] does the source give for Cc1ccc(NC(=O)c2cnn(-c3ccccc3)c2C(F)(F)F)cc1NC(=O)c1cnoc1C [Example 23, 5-methyl-N-(2-methyl-5-(1-phenyl-5-(trifluoromethyl)-1H-pyrazole-4-carboxamido)phenyl)isoxazole-4-carboxamide] here?
**A.** 10 to 30 µM

**Q.** What about the GI50 [2] of the same compound?
**A.** < 1 µM

**Q.** With Cc1cc(C)cc(C(=O)Nc2ccc(C)c(NC(=O)c3cnoc3C)c2)c1 [Example 24, N-(5-(3,5-dimethylbenzamido)-2-methylphenyl)-5-methylisoxazole-4-carboxamide] as the compound, how does the GI50 [1] read?
**A.** 10 to 30 µM

**Q.** And the GI50 [2]?
**A.** 1 to 10 µM

**Q.** Cc1ccc(NC(=O)c2ccccc2-c2ccccc2)cc1NC(=O)c1cnoc1C [Example 25, N-(5-biphenyl-2-ylcarboxamido-2-methylphenyl)-5-methylisoxazole-4-carboxamide] was tested. Which GI50 [1] did it give?
**A.** 10 to 30 µM

**Q.** And the GI50 [2]?
**A.** 10 to 30 µM

**Q.** Which GI50 [1] does the source give for Cc1ccc(NC(=O)c2ccc(-c3ccccc3)cc2)cc1NC(=O)c1cnoc1C [Example 26, N-(5-biphenyl-4-ylcarboxamido-2-methylphenyl)-5-methylisoxazole-4-carboxamide] here?
**A.** 10 to 30 µM

**Q.** And the GI50 [2]?
**A.** 10 to 30 µM

**Q.** Which GI50 [1] does the source give for Cc1ccc(NC(=O)c2cnc3ccccc3c2)cc1NC(=O)c1cnoc1C [Example 27, 5-methyl-N-(2-methyl-5-(quinoline-3-carboxamido)phenyl)isoxazole-4-carboxamide] here?
**A.** 10 to 30 µM

**Q.** What about the GI50 [2] of the same compound?
**A.** 10 to 30 µM

**Q.** Which GI50 [1] does the source give for Cc1ccc(NC(=O)Nc2ccc(Cl)cc2)cc1NC(=O)c1cnoc1C [Example 28, N-(5-(3-(4-chlorophenyl)ureido)-2-methylphenyl)-5-methylisoxazole-4-carboxamide] here?
**A.** 10 to 30 µM

**Q.** What about the GI50 [2] of the same compound?
**A.** 10 to 30 µM

**Q.** Which results are given for Cc1ccc(NC(=O)Nc2cccc(C(F)(F)F)c2)cc1NC(=O)c1cnoc1C [Example 29, 5-methyl-N-(2-methyl-5-(3-(3-(trifluoromethyl)phenyl)ureido)phenyl)isoxazole-4-carboxamide]?
**A.** GI50 [1]: 10 to 30 µM; GI50 [2]: 10 to 30 µM

**Q.** Which GI50 [1] does the source give for Cc1ccc(NC(=O)Nc2ccc(Cl)c(C(F)(F)F)c2)cc1NC(=O)c1cnoc1C [Example 30, N-(5-(3-(4-chloro-3-(trifluoromethyl)phenyl)ureido)-2-methylphenyl)-5-methylisoxazole-4-carboxamide] here?
**A.** 10 to 30 µM

**Q.** And the GI50 [2]?
**A.** 10 to 30 µM

**Q.** Which GI50 [1] does the source give for Cc1ccc(NC(=O)Nc2ccccc2F)cc1NC(=O)c1cnoc1C [Example 31, N-(5-(3-(2-fluorophenyl)ureido)-2-methylphenyl)-5-methylisoxazole-4-carboxamide] here?
**A.** 10 to 30 µM

**Q.** And the GI50 [2]?
**A.** 10 to 30 µM

**Q.** How did the GI50 [1] turn out when Cc1ccc(NC(=O)Nc2cccc(Cl)c2)cc1NC(=O)c1cnoc1C [Example 32, N-(5-(3-(3-chlorophenyl)ureido)-2-methylphenyl)-5-methylisoxazole-4-carboxamide] was run?
**A.** 10 to 30 µM

**Q.** What about the GI50 [2] of the same compound?
**A.** 10 to 30 µM

**Q.** What does the source list for Cc1ccc(NC(=O)Nc2cc(Cl)cc(Cl)c2)cc1NC(=O)c1cnoc1C [Example 33, N-(5-(3-(3,5-dichlorophenyl)ureido)-2-methylphenyl)-5-methylisoxazole-4-carboxamide]?
**A.** GI50 [1]: 10 to 30 µM; GI50 [2]: 10 to 30 µM
